Results: patent US20260132165A1, “MODIFIED NUCLEOSIDE ANALOGUE AND USE THEREOF, AND NUCLEOSIDE ANALOGUE-CONTAINING DOUBLE-STRANDED OLIGONUCLEOTIDE AND USE THEREOF” (RIGERNA THERAPEUTICS (BEIJING) CO., LTD., priority 2023, published 2026)
Strand notation (5' to 3'): a small letter for the sugar, then the base; units joined by * are phosphorothioate-linked, units joined directly phosphodiester-linked; [ ] holds rarer units or linkages, { } end groups; capitals alone tell only the bases. [Uhd] = commercial nucleoside analogue vector Uhd (Shanghai Hongene), the reference conjugate, placed in the sense strand; [NM031] = nucleoside analogue NM031 of the disclosure, C16 lipid conjugate (uridine-based); {VP} = vinylphosphonate on the antisense 5' end; e = 2'-O-(2-methoxyethyl) (MOE); m = 2'-O-methyl; f = 2'-fluoro

What was measured:
target gene SOD1 [1] = test: Test Example 4: lipid conjugated siRNA sequences with different carbon chain lengths, SOD1 in mouse brain, lateral ventricle administration; assay type: in vivo, C57BL/6j mice; parameters: Right hemisphere Mean value of inhibition rate / Left hemisphere Mean value of inhibition rate: unit not given here; details: D5; for Left hemisphere Mean value of inhibition rate: left hemisphere (non-administration side); for Left hemisphere Mean value of inhibition rate / Right hemisphere Mean value of inhibition rate: lateral ventricle; for Right hemisphere Mean value of inhibition rate: right hemisphere (administration side)
Procedure: 6-8 Week-old C57BL/6j mice were randomly grouped by body weight. Mice in each group were administered with siRNA by lateral ventricle administration, with an administration dose per mouse depending on a specific test. Taking Bregma in mouse brain as point 0 (origin), coordinates of right ventricle were found using the cerebral stereotaxic apparatus and position was marked on surface of skull (position of lateral ventricle was AP (anteroposterior, bregma anterior and posterior): −0.58 mm, ML (mediolateral, left and right of middle raphe): −1.2 mm, DV (dorsoventral, up and down cerebral dura mater plane): −2.2 mm). A dental electric drill was used to drill in the skull above a position of interest, and then medicament was injected into the lateral ventricle by a micro-dosing pump, wherein a total injection volume was 5 μL, and injection duration was 10 min. Needle was retained for 5 min after completion of injection, and then slowly withdrawn. Afterwards, needle hole was sealed with biomedical glue, and then head skin was adhered. After animals woke up, the animals were returned back to animal house and further fed. PBS control group was administered with the same volume of siRNA-free PBS solution. The day of administration was recorded as 0 day (D0), and the mice were sacrificed at observation point after the administration. Different parts of brain region were respectively taken and stored in the RNAlater.
(§1) RNA extraction: the above tissue samples were taken out from the RNAlater, and smashed for 60 s in Tissuelyser type II full-automatic tissue homogenizer, and total RNAs of various tissue samples were extracted using the full-automatic nucleic acid extraction instrument and the nucleic acid extraction kit from Zhejiang Hanwei Science and Technology Co. Ltd. according to methods described in instructions.
(§2) Reverse transcription reaction: 1 μg of the extracted total RNAs of the tissue samples were taken, and configured into 20 μL of reverse transcription system according to a method described in kit instructions by using a reverse transcription kit (Reverse Transcription System, A3500) from Promega Corporation and selecting Oligo (dT)15 reverse transcription primers, and the reverse transcription reaction was completed. After the reaction was ended, 80 μL of RNase-Free water was added into the reverse transcription system to provide cDNA solution for Real-time PCR detection.
(§3) Real-time PCR detection: 20 μL of Real-time PCR reaction system per PCR detection well was configured according to a method described in kit instructions using SYBR™ Select Master Mix (Catalog number: 4472908) reagent from ABI company. Each detection system contained 5 μL of cDNA template obtained from the above reverse transcription reaction, 10 μL of SYBR™ Select Master Mix, 0.5 μL of 10 μM upstream primers, 0.5 μL of 10 μM downstream primers, and 4 μL of RNase-Free H2O. The configured reaction system was subjected to Real-time PCR amplification on ABI StepOnePlus PCR instrument by a three-step method, wherein an amplification procedure was pre-denaturation at 95° C. for 10 min, then denaturation at 95° C. for 30 s, annealing at 60° C. for 30 s, and extension at 72° C. for 30 s; and processes of denaturation, annealing, and extension were repeated for 40 cycles. Gene expression differences were calculated by the ΔΔCt method after completion of the procedure.
In the real-time fluorescence quantitative PCR method, relative quantitative calculation of remaining expression level and inhibition rate of gene mRNA of interest in various test groups was performed by the ΔΔCt method, and the calculation method is as follows: […]

target gene SOD1 [2] = test: Test Example 12: inhibitory activity of lipid conjugated siRNA sequence on SOD1 in mouse eyes (intravitreal administration); assay type: in vivo, C57BL/6J mice; details: intravitreal, right eye, 7.5 μg per mouse, D14
Procedure: as §1, §2, §3
(§4) In the real-time fluorescence quantitative PCR method, relative quantitative calculation of remaining expression level and inhibition rate of gene mRNA of interest in various test groups was performed by the ΔΔCt method, and the calculation method is as follows:
The present test example evaluated, by an evaluation method for inhibitory activity on a target gene in mice, the inhibitory activity of siRNA sequence RZ899091 with the sense strand with the NM074 conjugation at Position 4 and siRNA reference sequence RX899121 without vector conjugation on the target gene SOD1 of interest in mice.
6-8 Week-old C57BL/6J mice were randomly grouped by body weight, 5 in each group and 3 groups in total. Mice in each group were administered with the above siRNA conjugate by intravitreal administration to right eyes of the mice, with an administration dose of 7.5 μg per mouse, and an administration volume of 2 μL. PBS control group was administered with the same volume of siRNA conjugate-free PBS solution. The day of administration was recorded as D0, and the mice were sacrificed at D14 after administration. Administration-side ocular retina, choroid, cornea, sclera and other tissues were respectively taken and stored in the RNAlater. RNA extraction, reverse transcription, and real-time fluorescence quantitative detection were performed on various tissues according to the above method, and gene expression differences were calculated by the above ΔΔCt method.

target gene SOD1 [3] = test: Test Example 5: inhibitory activity of lipid conjugated siRNA sequences on SOD1 by intrathecal administration to rats; assay type: in vivo, SD rats; parameters: key to Lumbar segmen Mean value of inhibition rate / Cortex Mean value of inhibition rate / Thoracic segment Mean value of inhibition rate / Cervical segment Mean value of inhibition rate / Cerebellum Mean value of inhibition rate / Hippocampus Mean value of inhibition rate: inhibition rate of SOD1 mRNA, calculated by the ΔΔCt method; details: intrathecal, 900 μg per rat, D7; for Cortex Mean value of inhibition rate: cerebral cortex; for Cervical segment Mean value of inhibition rate: spinal cord cervical segment; for Lumbar segmen Mean value of inhibition rate: spinal cord lumbar segment; for Thoracic segment Mean value of inhibition rate: spinal cord thoracic segment
Procedure: 6-8 Week-old SD rats were randomly grouped by body weight. Rats in each group were administered with siRNA by intrathecal administration, with an administration dose of 900 μg per rat. Injection was administered from rat spinal cord L5-L6, with an administration volume of 40 μL. Needle was retained for 2 min after completion of injection, and then slowly withdrawn. PBS control group was administered with the same volume of siRNA conjugate-free PBS solution. The day of administration was recorded as 0 day (D0), and the rats were sacrificed at observation point after administration. Different segments of spinal cord and different regions of brain were respectively taken and stored in the RNAlater.
as §1, §2, §3, §4
The present example evaluated, by an evaluation method for inhibitory activity on a target gene by intrathecal administration to rats, the inhibitory activity of siRNA sequence RZ899060 with the sense strand with the NM031 conjugation at Position 4 and vector-free siRNA sequence RZ899056, and Uhd conjugated siRNA reference sequence RZ899055 on the target gene SOD1 of interest in spinal cord and brain of rats.
6-8 Week-old SD rats were randomly grouped by body weight, 5 per group, 4 groups in total. Rats in each group were dosed with the above siRNA conjugates by intrathecal administration, with an administration dose of 900 μg per rat, and an administration volume of 40 μL. PBS control group was administered with the same volume of siRNA conjugate-free PBS solution. The day of administration was recorded as 0 day (D0), and the rats were sacrificed on D7 after administration. […]

RX599002: vector-free siRNA sequence; SEQ ID NO: 17 / 24 (sense mU*mU*mUmUmAmAfUfCfCfUmCmAmCmUmCmUmAmAmA; antisense {VP}-mU*fU*mUmAmGfAmGmUfGmAmGmGmAfUeUfAmAmAmA*mU*mG) [reference compound]
Left hemisphere Mean value of inhibition rate (target gene SOD1 [1]; 150 μg per mouse): 55.55
Right hemisphere Mean value of inhibition rate (target gene SOD1 [1]; 150 μg per mouse): 74.62

RX899121: siRNA reference sequence without vector conjugation; SEQ ID NO: 25 / 23 (sense mU*mU*mUmUmAmAfUfCfCfUmCmAmCmUmCmUmAmAmA; antisense {VP}-mU*fU*mUmAmGfAmGmUmGmAmGfGmAfUeUfAmAmAmA*mU*mG) [reference compound]
Choroid % Mean value of inhibition rate (target gene SOD1 [2]; choroid): 3.16%
Cornea and sclera % Mean value of inhibition rate (target gene SOD1 [2]; cornea and sclera): 5.35%
Kidney % Mean value of inhibition rate (target gene SOD1 [2]; kidney): 2.89%
Liver % Mean value of inhibition rate (target gene SOD1 [2]; liver): 5.35%
Retina % Mean value of inhibition rate (target gene SOD1 [2]; retina): 17.47%

RZ899055: Uhd conjugated siRNA reference sequence; SEQ ID NO: 4 / 22 (sense mU*mU*mU[Uhd]mAmAfUfCfCmUmCmAmCmUmCmUmAmAmA; antisense {VP}-mU*fU*mUmAmGfAmGmUmGmAmGmGmAfUmUfAmAmAmA*mU*mG)
Cerebellum Mean value of inhibition rate (target gene SOD1 [3]): 68.43
Cortex Mean value of inhibition rate (target gene SOD1 [3]): 41.47
Hippocampus Mean value of inhibition rate (target gene SOD1 [3]): 48.56
Cervical segment Mean value of inhibition rate (target gene SOD1 [3]): 81.31
Lumbar segmen Mean value of inhibition rate (target gene SOD1 [3]): 87.46
Thoracic segment Mean value of inhibition rate (target gene SOD1 [3]): 91.10

RZ899056: vector-free siRNA sequence; SEQ ID NO: 1 / 22 (sense mU*mU*mUmUmAmAfUfCfCmUmCmAmCmUmCmUmAmAmA; antisense {VP}-mU*fU*mUmAmGfAmGmUmGmAmGmGmAfUmUfAmAmAmA*mU*mG)
Cerebellum Mean value of inhibition rate (target gene SOD1 [3]): 50.22
Cortex Mean value of inhibition rate (target gene SOD1 [3]): 33.88
Hippocampus Mean value of inhibition rate (target gene SOD1 [3]): 41.25
Cervical segment Mean value of inhibition rate (target gene SOD1 [3]): 70.86
Lumbar segmen Mean value of inhibition rate (target gene SOD1 [3]): 87.58
Thoracic segment Mean value of inhibition rate (target gene SOD1 [3]): 89.69

RZ899077: siRNA sequence with the sense strand with the NM201 (C22) conjugation at Position 4; SEQ ID NO: 19 / 24 (sense UUUNAAUCCUCACUCUAAA; antisense UUUAGAGUGAGGAUUAAAAUG; NM201 (C22) conjugate at sense position 4; modified_base 1..2 OTHER; 2'-methoxy and 5'-thiophosphate modified nucleotides; modified_base 3 OTHER; 2'-methoxy modified nucleotide; modified_base 4 OTHER; n is the synthetic nucleotide analog NM201 as described in the disclosure.; modified_base 5..6 OTHER; 2'-methoxy modified nucleotides; modified_base 7..10 OTHER; 2'-fluoro modified nucleotides; modified_base 11..19 OTHER; 2'-methoxy modified ; modified_base 1 OTHER; 2'-methoxy and 5'-thiovinylphosphonate modified nucleotide; modified_base 2 OTHER; 2'-fluoro and 5'-thiophosphate modified …)
Left hemisphere Mean value of inhibition rate (target gene SOD1 [1]; 150 μg per mouse): 32.81
Right hemisphere Mean value of inhibition rate (target gene SOD1 [1]; 150 μg per mouse): 43.33

RZ899092: siRNA sequence with the sense strand with the NM031 (C16) conjugation at Position 4; SEQ ID NO: 14 / 23 (sense mU*mU*mU[NM031]mAmAfUfCfCfUmCmAmCmUmCmUmAmAmA; antisense {VP}-mU*fU*mUmAmGfAmGmUmGmAmGfGmAfUeUfAmAmAmA*mU*mG)
inhibitory activity compared with the vector-free siRNA sequence RX599002 (target gene SOD1 [1]; left and right hemisphere, lateral ventricle 150 μg per mouse): superior inhibitory activity
Left hemisphere Mean value of inhibition rate (target gene SOD1 [1]; 150 μg per mouse): 60.45
activity compared with Uhd conjugated reference sequence RZ899093 and NM200 (C22) conjugated reference sequence RZ899076 (target gene SOD1 [1]; right hemisphere (administration side) and left hemisphere (non-administration side), 150 μg per mouse): substantially comparable activity in the right hemisphere
Right hemisphere Mean value of inhibition rate (target gene SOD1 [1]; 150 μg per mouse): 79.45
